# Results: patent US9992989B2, “Dual action lethal containers, systems, methods and compositions for killing adult mosquitos and larvae” (University of Florida Research Foundation, Inc., priority 2012, dated 2018)
# Assays:
# Aedes aegypti = assay: Adult mosquito mortality on aged insecticidal coatings on wood panels (Protocol A); assay type: in vivo; conditions: 24 h exposure, independent of aging for approximately 2 years (FIG. 7)
# Experimental: (§1) The following protocols A, B, C and D list the flowchart methodologies for experiments that were conducted for evaluating the different coatings used. • A. Flowchart of methodology in the evaluation of adulticide coating includes the steps of: • i. Obtain preferred coating basis; • ii. Add adulticide (pyrethroids) and, if desired, an additive (CARBONXIDE™) to formulate different formulations of insecticides; • iii. Add coating on wood panels; • iv. Age wood panels in simulated environmental conditions; • v. Prepare housing for adult mosquitoes • a Place a 4-oz plastic cup upside down on coated wood panels; • vi. Place adult mosquitoes in the housing cup to expose them to insecticidal coating; • vii. Measure mosquito mortality in 1-hour, 2-hour, and 24-hour after exposure; • viii. Collect data and perform statistical analysis to determine effectiveness of adulticide coating. • B. Flowchart of methodology in the evaluation of larvicide coating can include: • i. Obtain preferred coating basis; • ii. Add larvicide (insect growth regulators) and, if desired, an additive (CARBONXIDE™); • iii. Coat filter paper and let air dry for 1-3 days; • iv. Prepare housing for larval mosquitoes; • a. Place coated filter paper in 4-oz glass jars; • b. Fill jars with unchlorinated or distilled water; • v. Place larval mosquitoes on the jars; • vi. […]
# Aedes albopictus = assay: as above; assay type: in vivo; conditions: 24 h exposure, independent of aging for approximately 2 years (FIG. 8)
# Experimental: as §1
# mosquito larvae = assay: Dual-action ovitrap test, larval survival (Protocol D); assay type: in vivo; conditions: for Mosquito larval survival / mortality versus hours of exposure: larvae in water of ovitrap treated with coating (FIGS. 9-11)
# Experimental: The following protocols A, B, C and D list the flowchart methodologies for experiments that were conducted for evaluating the different coatings used. • A. Flowchart of methodology in the evaluation of adulticide coating includes the steps of: • i. Obtain preferred coating basis; • ii. Add adulticide (pyrethroids) and, if desired, an additive (CARBONXIDE™) to formulate different formulations of insecticides; • iii. Add coating on wood panels; • iv. Age wood panels in simulated environmental conditions; • v. Prepare housing for adult mosquitoes • a Place a 4-oz plastic cup upside down on coated wood panels; • vi. Place adult mosquitoes in the housing cup to expose them to insecticidal coating; • vii. Measure mosquito mortality in 1-hour, 2-hour, and 24-hour after exposure; • viii. Collect data and perform statistical analysis to determine effectiveness of adulticide coating. • B. Flowchart of methodology in the evaluation of larvicide coating can include: • i. Obtain preferred coating basis; • ii. Add larvicide (insect growth regulators) and, if desired, an additive (CARBONXIDE™); • iii. Coat filter paper and let air dry for 1-3 days; • iv. Prepare housing for larval mosquitoes; • a. Place coated filter paper in 4-oz glass jars; • b. Fill jars with unchlorinated or distilled water; • v. Place larval mosquitoes on the jars; • vi. Measure mosquito larva mortality in 12-hour intervals until all are dead or emerged as adults; • vii. Collect data and perform statistical analysis to determine effectiveness of adulticide coating. • C. Flowchart of methodology in evaluation of adulticide coating as applied in lethal ovitrap can include: • i. Obtain preferred coating basis; • ii. Add adulticide (pyrethroids) and, if desired an additive (CARBONXIDE™); • iii. Coat filter paper and let air dry for 1-3 days; • iv. Prepare oviposition cup; • a. Place coated filter paper in a 4-oz plastic cup; • b. Fill cup halfway with unchlorinated or distilled water; • v. Prepare housing for gravid (“pregnant”) females; • a. Cut a 1-inch hole on the side of a 3-gallon bucket; • b. Cover hole with ½ in foam; • vi. […]
# [1] = tested on: gravid females (adult mosquitoes); assay: Dual-action ovitrap test, adult survival (Protocol D); assay type: in vivo, mosquito; conditions: gravid females exposed to ovitrap treated with coating (FIGS. 9-11)
# Experimental: as §1
Structure (SMILES),Percent of Adult Mosquito Mortality (Aedes aegypti),Percent of Adult Mosquito Mortality (Aedes albopictus),Mosquito larval survival / mortality versus hours of exposure (mosquito larvae),Adult survival / mortality versus hours of exposure [1],Pupal development / adult emergence from larvae (mosquito larvae; larvae in ovitrap treated with coating (FIG. 11))
CC1(C)C(C=C(Cl)Cl)C1C(=O)OCc1cccc(Oc2ccccc2)c1 (stereo not shown) [permethrin],100%,100%,killed rapidly,Adult mortality does not occur until after the females have started laying eggs,–
CC(COc1ccc(Oc2ccccc2)cc1)Oc1ccccn1 (stereo not shown) [pyriproxyfen],–,–,killed rapidly when they start molting into the pupal stage,only normal mortality,adults never emerge
